Data on seven substances can be found in paper PMC3859497, “Expression and Biological Activity of the Cystine Knot Bioinsecticide PA1b (Pea Albumin 1 Subunit b)” (PLoS ONE, 2013).

No end group written: not given here. Where only a bound is given, the exact number is not on record here.

One assay relates to Sf9 insect cells. Briefly: Viability assay on Sf9 insect cells. It is filed as cell-based, Spodoptera frugiperda. As to conditions: Sf9 cell viability assay, nM (SEM), HPLC purified tobacco-expressed isoforms. As for the experimental part: Spodoptera frugiperda Sf9 cells were grown and used for viability assays, according to [23].
The subject of assay [1] is Sitophilus oryzae PA1b resistant strain ISOR3. Nature of the assay: Toxicity assay on weevils, PA1b resistant strain ISOR3. The conditions noted are these: adult S. oryzae, PA1b resistant strain ISOR3, food pellets incorporating peptide at 400 µg.g−1. It is filed as in vivo. As for the experimental part: (§1) Rice weevils (Sitophilus oryzae, Coleoptera) were reared on wheat seeds at 27.5°C and 70% RH. Tests and survival analysis were performed on adults feeding on food pellets (composed of wheat flour and water) incorporating PA1b (extracted from pea seeds for control tests or produced in tobacco) at 400 µg.g^−1, as described in detail in [10]. LT50 values were calculated using the SIMFIT software (http://www.simfit.man.ac.uk). The PA1b resistant strain, ISOR3, was reared in an identical way except that the weevils were fed on pea seeds rather than on wheat seeds.

Assay [2] has as its system Sitophilus oryzae sensitive weevil strain WAA42. Briefly: Toxicity assay on weevils, sensitive strain WAA42 (survival analysis on food pellets). It counts as in vivo. As to conditions: adult S. oryzae, sensitive strain WAA42, fed food pellets (wheat flour and water) incorporating peptide at 400 µg.g−1, days +/− SEM, LT50 calculated with SIMFIT. As for the experimental part: as §1

For the substance “ISCNGVCSPFDIPPCGSPLCRCIPAGLVIGNCRNPY G (bicyclic or more) [Isoform 3, pea PA1b isoform (GenBank AJ574796) expressed in tobacco]”, the results for the “CL50 Sf9” value in the assay on Sf9 insect cells (listed as 3) and in the assay on Sf9 insect cells (listed as isoform 3) were more than 1500 nM and “completely inactive”, respectively. Also, the “TL50 ISOR3 (mortality on resistant strain)” value (shortened to “TL50 ISOR3”) in assay [1] is “no mortality”. The “TL50 WAA42” value in assay [2] (listed as 3) is “no mortality”; in assay [2] (listed as isoform 3), “completely inactive”.
Take “ASCNGVCSPFEMoxPPCGSSACRCIPVGLVVGYCRHPSG (bicyclic or more) [Isoform 4, pea PA1b isoform (GenBank M13790 and AJ276882) expressed in tobacco]”: the “CL50 Sf9” value in the assay on Sf9 insect cells worked out at 269 ± 50 nM. In addition, the “TL50 ISOR3” value in assay [1] is reported as “no mortality”. Besides, the “TL50 WAA42” value is 12.9+−1.1 days in assay [2] (listed as 4) and 12.9 ± 1.1 days in assay [2] (listed as isoform 4).
For the substance “ASCNGVCSPFEMoxPPCGSSACRCIPVGLLIGYCRNPSG (bicyclic or more) [Isoform 1, pea PA1b isoform (GenBank AJ574795) expressed in N. benthamiana with the PA1-cassette]”, the “CL50 Sf9” value with Sf9 insect cells is 82 (24) nM. In assay [1], the “TL50 ISOR3” value is listed as “no mortality”. For the same substance, in assay [2], the “TL50 WAA42” value was 9.2+−0.9 days.
In the same order, the values of “ASCNGVCSPFEMoxPPCGTSACRCIPVGLVIGYCRNPSG (bicyclic or more) [Isoform 6, pea PA1b isoform (GenBank AJ574793) expressed in tobacco]” are 96 (22) nM, “no mortality” and 8.9+−0.7 days.
In the same order, the values of “ASCNGVCSPFEMPPCGTSACRCIPVGLFIGYCRNPSG (also: bicyclic or more (positions not given here)) [Isoform 2.2, pea PA1b isoform 2 (GenBank AJ574794), non-oxidized Met form, expressed in tobacco]” are 53 (16) nM, “no mortality” and 8.9+−0.6 days.
The corresponding values for “ASCNGVCSPFEMoxPPCGTSACRCIPVGLVVGYCRNPSG (bicyclic or more) [Isoform 5, pea PA1b isoform (GenBank M13709) expressed in tobacco]” are 99 (31) nM, “no mortality” and 9.35+−0.7 days.
“ASCNGVCSPFEMoxPPCGTSACRCIPVGLFIGYCRNPSG (bicyclic or more) [Isoform 2.1, pea PA1b isoform 2 (GenBank AJ574794), oxidized Met form, expressed in tobacco]”: the “CL50 Sf9” value with Sf9 insect cells is on record as 82 (36) nM. Besides, the “TL50 ISOR3” value in assay [1] is “no mortality”. In assay [2], the “TL50 WAA42” value is 9.5+−0.7 days.
